Laboratory results taken from the NIST ThermoML archive (doi:10.1016/j.tca.2011.05.006).
Numbers after ± are expanded uncertainties.

How the values were obtained:
[1] = 101 kPa, Liquid, Vibrating tube method
[2] = xn = mol fraction of the nth substance listed; conditions: 101 kPa, Liquid, Vibrating tube method

CCCCO [butan-1-ol]
[1]
Conditions | mass density [kg/m3]
293.15 K | 809.78 ± 0.24
298.15 K | 806.05 ± 0.24
303.15 K | 802.03 ± 0.24
313.15 K | 794.12 ± 0.24

CCCCO [butan-1-ol] + CC(C)NC(C)C
[2], x2 = 0
Conditions | mass density [kg/m3]
293.15 K | 809.78 ± 0.24
298.15 K | 806.05 ± 0.24
303.15 K | 802.03 ± 0.24
313.15 K | 794.12 ± 0.24

CC(C)NC(C)C [diisopropylamine]
[1]
Conditions | mass density [kg/m3]
293.15 K | 720.89 ± 0.24
298.15 K | 715.35 ± 0.24
303.15 K | 710.23 ± 0.24
313.15 K | 699.71 ± 0.25

CC(C)NC(C)C [diisopropylamine] + CCCCCO
mass density [kg/m3], [2]
Conditions | 293.15 K | 298.15 K | 303.15 K | 313.15 K
x1 = 0.0815 | 809.89 ± 0.24 | 805.62 ± 0.24 | 801.64 ± 0.24 | 794.78 ± 0.24
x1 = 0.16 | 804.18 ± 0.24 | 799.78 ± 0.24 | 795.61 ± 0.24 | 788.52 ± 0.24
x1 = 0.2392 | 797.77 ± 0.24 | 793.23 ± 0.24 | 788.98 ± 0.24 | 780.98 ± 0.24
x1 = 0.35 | 787.88 ± 0.24 | 783.17 ± 0.24 | 778.74 ± 0.24 | 769.75 ± 0.24
x1 = 0.4401 | 779.23 ± 0.24 | 774.43 ± 0.24 | 769.93 ± 0.24 | 760.48 ± 0.24
x1 = 0.5597 | 767.21 ± 0.24 | 762.29 ± 0.24 | 757.69 ± 0.24 | 748.46 ± 0.24
x1 = 0.6498 | 757.9 ± 0.24 | 752.85 ± 0.24 | 748.14 ± 0.24 | 739.55 ± 0.24
x1 = 0.7356 | 748.9 ± 0.24 | 743.79 ± 0.24 | 738.95 ± 0.24 | 730.94 ± 0.24
x1 = 0.8497 | 736.82 ± 0.24 | 731.52 ± 0.24 | 726.57 ± 0.24 | 718.73 ± 0.24
x1 = 0.9379 | 727.48 ± 0.24 | 722.03 ± 0.24 | 716.97 ± 0.24 | 708.08 ± 0.25
x1 = 1 | 720.89 ± 0.24 | 715.35 ± 0.24 | 710.23 ± 0.24 | 699.71 ± 0.25

CC(C)NC(C)C [diisopropylamine] + CCCCO
mass density [kg/m3], [2]
Conditions | 293.15 K | 298.15 K | 303.15 K | 313.15 K
x1 = 0.0815 | 804.64 ± 0.24 | 800.71 ± 0.24 | 796.89 ± 0.24 | 789.72 ± 0.24
x1 = 0.1611 | 798.64 ± 0.24 | 794.65 ± 0.24 | 790.84 ± 0.24 | 783.86 ± 0.24
x1 = 0.2404 | 792.1 ± 0.24 | 788 ± 0.24 | 784.11 ± 0.24 | 777.07 ± 0.24
x1 = 0.3496 | 782.52 ± 0.24 | 778.41 ± 0.24 | 774.3 ± 0.24 | 767.06 ± 0.24
x1 = 0.44 | 774.49 ± 0.24 | 770.21 ± 0.24 | 766.09 ± 0.24 | 758.54 ± 0.24
x1 = 0.56 | 763.71 ± 0.24 | 759.1 ± 0.24 | 754.95 ± 0.24 | 747.2 ± 0.24
x1 = 0.6499 | 755.59 ± 0.24 | 750.61 ± 0.24 | 746.56 ± 0.24 | 738.57 ± 0.24
x1 = 0.74 | 747.35 ± 0.24 | 741.97 ± 0.24 | 737.86 ± 0.24 | 729.62 ± 0.24
x1 = 0.8484 | 736.91 ± 0.24 | 731.98 ± 0.24 | 727 ± 0.24 | 718.21 ± 0.24
x1 = 0.9384 | 727.64 ± 0.24 | 721.96 ± 0.24 | 717.35 ± 0.25 | 707.61 ± 0.25
x1 = 1 | 720.89 ± 0.24 | 715.35 ± 0.24 | 710.23 ± 0.24 | 699.71 ± 0.25

CC(C)NC(C)C [diisopropylamine] + CCCO
mass density [kg/m3], [2]
Conditions | 293.15 K | 298.15 K | 303.15 K | 313.15 K
x1 = 0.0813 | 796.38 ± 0.24 | 793.94 ± 0.24 | 791.19 ± 0.24 | 784.48 ± 0.24
x1 = 0.1608 | 791.55 ± 0.24 | 788.58 ± 0.24 | 785.66 ± 0.24 | 779.04 ± 0.24
x1 = 0.2398 | 785.63 ± 0.24 | 782.57 ± 0.24 | 779.21 ± 0.24 | 772.45 ± 0.24
x1 = 0.3497 | 777.13 ± 0.24 | 773.41 ± 0.24 | 769.55 ± 0.24 | 762.48 ± 0.24
x1 = 0.4398 | 769.26 ± 0.24 | 765.67 ± 0.24 | 761.55 ± 0.24 | 754.19 ± 0.24
x1 = 0.5546 | 760.03 ± 0.24 | 755.85 ± 0.24 | 751.48 ± 0.24 | 743.87 ± 0.24
x1 = 0.6487 | 752.32 ± 0.24 | 747.75 ± 0.24 | 743.28 ± 0.24 | 735.48 ± 0.24
x1 = 0.7383 | 744.72 ± 0.24 | 740.05 ± 0.24 | 735.49 ± 0.24 | 727.35 ± 0.24
x1 = 0.8491 | 735.16 ± 0.24 | 730.09 ± 0.24 | 725.47 ± 0.24 | 716.62 ± 0.24
x1 = 0.9395 | 726.79 ± 0.24 | 721.53 ± 0.24 | 716.61 ± 0.24 | 706.82 ± 0.25
x1 = 1 | 720.89 ± 0.24 | 715.35 ± 0.24 | 710.23 ± 0.24 | 699.71 ± 0.25

CC(C)NC(C)C [diisopropylamine] + CCO
mass density [kg/m3], [2]
Conditions | 293.15 K | 298.15 K | 303.15 K | 313.15 K
x1 = 0.0808 | 788.65 ± 0.24 | 783.48 ± 0.24 | 777.89 ± 0.24 | 767.17 ± 0.24
x1 = 0.1601 | 784.61 ± 0.24 | 779.32 ± 0.24 | 773.64 ± 0.24 | 762.87 ± 0.24
x1 = 0.2386 | 779.98 ± 0.24 | 774.56 ± 0.24 | 768.86 ± 0.24 | 758.28 ± 0.24
x1 = 0.3497 | 772.63 ± 0.24 | 767.12 ± 0.24 | 761.5 ± 0.2 | 751.13 ± 0.24
x1 = 0.4411 | 766.01 ± 0.24 | 760.55 ± 0.24 | 755.15 ± 0.24 | 744.76 ± 0.24
x1 = 0.5532 | 757.4 ± 0.2 | 752.37 ± 0.24 | 747.04 ± 0.24 | 736.47 ± 0.24
x1 = 0.65 | 749.49 ± 0.24 | 744.83 ± 0.24 | 739.74 ± 0.24 | 728.89 ± 0.24
x1 = 0.7395 | 742.16 ± 0.24 | 737.7 ± 0.24 | 732.71 ± 0.24 | 721.68 ± 0.24
x1 = 0.8478 | 733.27 ± 0.24 | 728.73 ± 0.24 | 723.74 ± 0.24 | 712.63 ± 0.25
x1 = 0.9385 | 725.8 ± 0.2 | 720.86 ± 0.24 | 715.91 ± 0.25 | 704.95 ± 0.25
x1 = 1 | 720.89 ± 0.24 | 715.35 ± 0.24 | 710.23 ± 0.24 | 699.71 ± 0.25

CC(C)NC(C)C [diisopropylamine] + CO
mass density [kg/m3], [2]
Conditions | 293.15 K | 298.15 K | 303.15 K | 313.15 K
x1 = 0.0808 | 789.98 ± 0.24 | 785.35 ± 0.24 | 779.68 ± 0.24 | 768.72 ± 0.24
x1 = 0.1599 | 786.75 ± 0.24 | 781.66 ± 0.24 | 776.01 ± 0.24 | 764.23 ± 0.24
x1 = 0.2399 | 782.33 ± 0.24 | 777.02 ± 0.24 | 771.2 ± 0.24 | 758.93 ± 0.24
x1 = 0.3477 | 774.9 ± 0.24 | 769.38 ± 0.24 | 763.6 ± 0.24 | 751.16 ± 0.24
x1 = 0.4444 | 767.44 ± 0.24 | 761.76 ± 0.24 | 756.06 ± 0.24 | 744.11 ± 0.24
x1 = 0.5563 | 757.92 ± 0.24 | 752.29 ± 0.24 | 746.8 ± 0.24 | 735.46 ± 0.24
x1 = 0.6507 | 749.84 ± 0.24 | 744.22 ± 0.24 | 738.78 ± 0.24 | 727.96 ± 0.24
x1 = 0.7388 | 742.2 ± 0.24 | 736.62 ± 0.24 | 731.3 ± 0.24 | 720.89 ± 0.24
x1 = 0.8482 | 732.94 ± 0.24 | 727.37 ± 0.24 | 722.19 ± 0.24 | 712.05 ± 0.25
x1 = 0.94 | 725.56 ± 0.24 | 719.98 ± 0.24 | 714.87 ± 0.24 | 704.62 ± 0.25
x1 = 1 | 720.89 ± 0.24 | 715.35 ± 0.24 | 710.23 ± 0.24 | 699.71 ± 0.25

CCO [ethanol]
[1]
Conditions | mass density [kg/m3]
293.15 K | 792.17 ± 0.24
298.15 K | 786.71 ± 0.24
303.15 K | 781.3 ± 0.24
313.15 K | 771.14 ± 0.24

CCO [ethanol] + CC(C)NC(C)C
[2], x2 = 0
Conditions | mass density [kg/m3]
293.15 K | 792.17 ± 0.24
298.15 K | 786.71 ± 0.24
303.15 K | 781.3 ± 0.24
313.15 K | 771.14 ± 0.24

CO [methanol]
[1]
Conditions | mass density [kg/m3]
293.15 K | 791.72 ± 0.24
298.15 K | 787.35 ± 0.24
303.15 K | 782.24 ± 0.24
313.15 K | 772.73 ± 0.24

CO [methanol] + CC(C)NC(C)C
[2], x2 = 0
Conditions | mass density [kg/m3]
293.15 K | 791.72 ± 0.24
298.15 K | 787.35 ± 0.24
303.15 K | 782.24 ± 0.24
313.15 K | 772.73 ± 0.24

CCCCCO [pentan-1-ol]
[1]
Conditions | mass density [kg/m3]
293.15 K | 814.8 ± 0.24
298.15 K | 810.82 ± 0.24
303.15 K | 807.07 ± 0.24
313.15 K | 799.4 ± 0.24

CCCCCO [pentan-1-ol] + CC(C)NC(C)C
[2], x2 = 0
Conditions | mass density [kg/m3]
293.15 K | 814.8 ± 0.24
298.15 K | 810.82 ± 0.24
303.15 K | 807.07 ± 0.24
313.15 K | 799.4 ± 0.24

CCCO [propan-1-ol]
[1]
Conditions | mass density [kg/m3]
293.15 K | 800.03 ± 0.24
298.15 K | 797.81 ± 0.24
303.15 K | 795.05 ± 0.24
313.15 K | 787.95 ± 0.24

CCCO [propan-1-ol] + CC(C)NC(C)C
[2], x2 = 0
Conditions | mass density [kg/m3]
293.15 K | 800.03 ± 0.24
298.15 K | 797.81 ± 0.24
303.15 K | 795.05 ± 0.24
313.15 K | 787.95 ± 0.24
